What was measured:
[1] = target: human BACE1 (Homo sapiens, UniProt P56817); test: BACE1 fluorescent kinetic assay (cleavage of peptide substrate WABC-6); format: biochemical; conditions: 5 μM inhibitor; 10 nM enzyme, 25 μM substrate, pH 4.5, room temperature; read-out: BACE-1 % Inhibition at 5 μM
Experimental: Evaluation of BACE1 Binding Affinity of Test Compounds
Fluorescent Kinetic Assays
Final Assay Conditions: 10 nM human BACE1 (or 10 nM Murine BACE1, 1.5 nM human BACE2), 25 μM substrate (WABC-6, MW 1549.6, from AnaSpec), Buffer: 50 mM Na-Acetate, pH 4.5, 0.05% CHAPS, 25% PBS, room temperature. Na-Acetate was from Aldrich, Cat.# 24, 124-5, CHAPS was from Research Organics, Cat. # 1304C 1×, PBS was from Mediatech (Cellgro), Cat# 21-031-CV, peptide substrate AbzSEVNLDAEFRDpa was from AnaSpec, Peptide Name: WABC-6
Determination of stock substrate (AbzSEVNLDAEFRDpa) concentration: ˜25 mM stock solution is made in DMSO using the peptide weight and MW, and diluted to ˜25 μM (1:1000) in 1×PBS. Concentration is determined by absorbance at 354 nm using an extinction coefficient ε of 18172 M^−1cm^−1, the concentration of stock substrate is corrected, and the substrate stock stored in small aliquots in −80° C. [Substrate Stock]=ABS^354 nm*10^6/18172 (in […]) The extinction coefficient ε^354 nm was adapted from TACE peptide substrate, which had the same quencher-fluorophore pair. Determination of Stock Enzyme Concentration: the stock concentration of each enzyme is determined by absorbance at 280 nm using an ε of 64150 M^−1cm^−1 for hBACE1 and MuBACE1, 62870 M^−1cm^−1 for hBACE2 in 6 M Guanidinium Hydrochloride (from Research Organics, Cat. # 5134G-2), pH ˜6. The extinction coefficient ε^280 nm for each enzyme was calculated based on known amino acid composition and published extinction coefficients for Trp ([…]) and Tyr ([…]) residues (Anal. Biochem. 182, 319-326). Dilution and mixing steps: total reaction volume: 100 μL
2× inhibitor dilutions in buffer A (66.7 mM Na-Acetate, pH 4.5, 0.0667% CHAPS) were prepared,
4× enzyme dilution in buffer A (66.7 mM Na-Acetate, pH 4.5, 0.0667% CHAPS) were prepared,
100 μM substrate dilution in 1×PBS was prepared, and
50 μL 2× Inhibitor, 25 μL 100 μM substrate are added to each well of 96-well plate (from DYNEX Technologies, VWR #: 11311-046), immediately followed by 25 μL 4× enzyme (added to the inhibitor and substrate mix), and the fluorescence readings are initiated.
Fluorescence Readings: Readings at λex 320 nm and λem 420 nm are taken every 40 sec for 30 min at room temperature and the linear slope for substrate cleavage rate (vi) determined.
Calculation of % Inhibition: % Inhibition=100*(1−vi/v0) vi: substrate cleavage rate in the presence of inhibitor v0: substrate cleavage rate in the absence of inhibitor IC50 Determination: % Inhibition=((B*IC50^n)+(100*I0^n))/(IC50^n+I0^n) (Model # 39 from LSW Tool Bar in Excel where B is the % inhibition from the enzyme control, which should be close to 0.) % Inhibition is plotted vs. Inhibitor Concentration (I0) and the data fit to the above equation to obtain IC50 value and Hill number (n) for each compound. Testing at least 10 different inhibitor concentrations is preferred.

human BACE1, sequence (P56817 46-501): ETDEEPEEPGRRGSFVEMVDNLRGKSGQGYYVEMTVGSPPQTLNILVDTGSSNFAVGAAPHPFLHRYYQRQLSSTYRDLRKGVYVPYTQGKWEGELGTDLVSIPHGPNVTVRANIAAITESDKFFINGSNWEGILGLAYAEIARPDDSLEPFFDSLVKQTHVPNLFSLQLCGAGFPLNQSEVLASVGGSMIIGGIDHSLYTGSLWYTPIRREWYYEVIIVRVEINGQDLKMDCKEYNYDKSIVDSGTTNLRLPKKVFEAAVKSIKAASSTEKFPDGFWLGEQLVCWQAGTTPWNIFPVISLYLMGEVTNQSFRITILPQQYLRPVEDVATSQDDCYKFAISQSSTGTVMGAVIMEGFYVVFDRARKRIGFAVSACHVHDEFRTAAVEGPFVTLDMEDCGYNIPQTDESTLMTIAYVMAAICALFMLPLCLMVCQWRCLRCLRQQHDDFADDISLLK

SMILES	inhibition at 5 µM [1]	melting point
N#CCCCOc1ccc2cc(-c3ccccc3Cl)n(Cc3cccc(N)n3)c2c1 [Example 8, 4-{[1-[(6-aminopyridin-2-yl)methyl]-2-(2-chlorophenyl)-1H-indol-6-yl]oxy}butanenitrile]	79%	
Nc1cccc(Cn2c(-c3ccccc3Cl)cc3ccc(OCc4ccccc4)cc32)n1 [Example 9, 6-{[6-(benzyloxy)-2-(2-chlorophenyl)-1H-indol-1-yl]methyl}pyridin-2-amine]	31.6%	64 to 66 °C
N#Cc1cccc(COc2ccc3cc(-c4ccccc4Cl)n(Cc4cccc(N)n4)c3c2)c1 [Example 10, 3-({[1-[(6-aminopyridin-2-yl)methyl]-2-(2-chlorophenyl)-1H-indol-6-yl]oxy}methyl)benzonitrile]	58%	65 to 67 °C
Nc1cccc(Cn2c(-c3ccccc3Cl)cc3ccc(OCc4cccc(F)c4)cc32)n1 [Example 11, 6-({2-(2-chlorophenyl)-6-[(3-fluorobenzyl)oxy]-1H-indol-1-yl}methyl)pyridin-2-amine]	49.5%	60 to 64 °C
Nc1cccc(Cn2c(-c3ccccc3Cl)cc3ccc(OCc4cc(F)ccc4F)cc32)n1 [Example 12, 6-({2-(2-chlorophenyl)-6-[(2,5-difluorobenzyl)oxy]-1H-indol-1-yl}methyl)pyridin-2-amine]	33.2%	65 to 68 °C
Nc1cccc(Cn2c(-c3ccccc3Cl)cc3ccc(OCc4cccc(C(F)(F)F)c4)cc32)n1 [Example 13, 6-[(2-(2-chlorophenyl)-6-{[3-(trifluoromethyl)benzyl]oxy}-1H-indol-1-yl)methyl]pyridin-2-amine]	13.8%	60 to 62 °C
COc1cccc(COc2ccc3cc(-c4ccccc4Cl)n(Cc4cccc(N)n4)c3c2)c1 [Example 14, 6-({2-(2-chlorophenyl)-6-[(3-methoxybenzyl)oxy]-1H-indol-1-yl}methyl)pyridin-2-amine]	36.3%	67 to 69 °C
CCCOc1ccc2cc(-c3ccccc3Cl)n(Cc3cccc(N)n3)c2c1 [Example 15, 6-{[2-(2-chlorophenyl)-6-propoxy-1H-indol-1-yl]methyl}pyridin-2-amine]	38.6%	128 to 130 °C
COc1ccc2cc(-c3ccccc3Cl)n(Cc3cccc(N)n3)c2c1 [Example 16, 6-{[2-(2-chlorophenyl)-6-methoxy-1H-indol-1-yl]methyl}pyridin-2-amine]	30.1%	174 to 176 °C
Nc1cccc(Cn2c(-c3ccccc3Cl)cc3ccc(Oc4cncnc4)cc32)n1 [Example 17, 6-{[2-(2-chlorophenyl)-6-(pyrimidin-5-yloxy)-1H-indol-1-yl]methyl}pyridin-2-amine]	39.8%	115 to 117 °C
Nc1cccc(Cn2c(-c3ccccc3Cl)cc3ccc(Br)cc32)n1 [Example 19, 6-{[6-Bromo-2-(2-chlorophenyl)-1H-indol-1-yl]methyl}pyridin-2-amine]	31.7%	189 to 191 °C
Nc1cccc(Cn2c(-c3ccccc3Cl)cc3ccc(C#CCCO)cc32)n1 [Example 20, 4-{1-[(6-Aminopyridin-2-yl)methyl]-2-(2-chlorophenyl)-1H-indol-6-yl}but-3-yn-1-ol]	67.5%	
Nc1cccc(Cn2c(-c3ccccc3Cl)cc3ccc(C#CCCF)cc32)n1 [Example 21, 6-{[6-(4-fluorobutyn-1-yl)-2-(2-chlorophenyl)-1H-indol-1-yl]methyl}pyridin-2-amine]	56.6%	
Nc1cccc(Cn2c(-c3ccccc3Cl)cc3ccc(C#CCCCO)cc32)n1 [Example 22, 5-{1-[(6-Aminopyridin-2-yl)methyl]-2-(2-chlorophenyl)-1H-indol-6-yl}pent-4-yn-1-ol]	71.2%	
Nc1cccc(Cn2c(-c3ccccc3Cl)cc3ccc(C#CCCCCO)cc32)n1 [Example 23, 6-{1-[(6-Aminopyridin-2-yl)methyl]-2-(2-chlorophenyl)-1H-indol-6-yl}hex-5-yn-1-ol]	81.1%	

Now from value to molecule:

inhibition at 5 µM [1]	melting point	SMILES
71.8%		Nc1cccc(Cn2c(-c3ccccc3Cl)cc3ccc(CCCCO)cc32)n1 [Example 24, 4-[1-(6-Aminopyridin-2-ylmethyl)-2-(2-chlorophenyl)-1H-indol-6-yl]butan-1-ol]
77.3%		Nc1cccc(Cn2c(-c3ccccc3Cl)cc3ccc(CCCCCO)cc32)n1 [Example 25, 5-[1-(6-Aminopyridin-2-ylmethyl)-2-(2-chlorophenyl)-1H-indol-6-yl]pentan-1-ol]
107%		Nc1cccc(Cn2c(-c3ccccc3Cl)cc3ccc(CCCCCCO)cc32)n1 [Example 26, 6-[1-(6-Aminopyridin-2-ylmethyl)-2-(2-chlorophenyl)-1H-indol-6-yl]hexan-1-ol]
51%		COCCC#Cc1ccc2cc(-c3ccccc3Cl)n(Cc3cccc(N)n3)c2c1 [Example 27, 6-{[2-(2-Chlorophenyl)-6-(4-methoxybut-1-yn-1-yl)-1H-indol-1-yl]methyl}pyridin-2-amine]
53%		COCCCC#Cc1ccc2cc(-c3ccccc3Cl)n(Cc3cccc(N)n3)c2c1 [Example 28, 6-{[2-(2-Chlorophenyl)-6-(5-methoxypent-1-yn-1-yl)-1H-indol-1-yl]methyl}pyridin-2-amine]
24.6%	45 to 47 °C	Nc1cccc(Cn2c(-c3ccccc3)cc3ccccc32)n1 [Example 30]
64.6%		Nc1cccc(Cn2c(-c3ccccc3Cl)cc3ccc(C#CCCCF)cc32)n1 [Example 31, 6-{[2-(2-chlorophenyl)-6-(5-fluoropent-1-yn-1-yl)-1H-indol-1-yl]methyl}pyridin-2-amine]
53.4%		Nc1cccc(Cn2c(-c3ccccc3Cl)cc3ccc(C#CCCCCF)cc32)n1 [Example 32, 6-{[2-(2-chlorophenyl)-6-(6-fluorohex-1-yn-1-yl)-1H-indol-1-yl]methyl}pyridin-2-amine]
